Laboratory results as given in ChEMBL document CHEMBL1134146, “Development of specific CXCR4 inhibitors possessing high selectivity indexes as well as complete stability in serum based on an anti-HIV peptide T140” (Bioorg Med Chem Lett, 2001).

What was measured:
[1] = Selectivity index determined for CC50 (test I) to EC50 x 10e3; assay type: functional
PBMC (Homo sapiens) = assay: Cytotoxic concentration of compound determined by the […] exclusion staining method in PBMC by test II
MT4 = assay: Cytotoxic concentration of compound required to reduce the viability of mock infected MT-4 cells on the MTT assay in test I; assay type: functional; details: Homo sapiens

SMILES | SI [1] | CC50 (PBMC (Homo sapiens)) [µM] | CC50 (MT4) [µM]
NCCCC[C@@H]1NC(=O)[C@@H](CCCCN)NC(=O)[C@H](CCCN=C(N)N)NC(=O)[C@@H](Cc2ccc(O)cc2)NC(=O)[C@H](NC(=O)[C@@H](NC(=O)[C@H](CCCN=C(N)N)NC(=O)[C@@H](N)CCCN=C(N)N)c2ccc3ccccc3c2)CSSC[C@H](C(=O)N[C@@H](CCCN=C(N)N)C(N)=O)NC(=O)[C@H](CCCNC(N)=O)NC(=O)[C@H](CCCN=C(N)N)NC(=O)[C@H](Cc2ccc(O)cc2)NC(=O)[C@H]2CCCN2C1=O | 0.14 | – | –
NCCCC[C@@H]1NC(=O)[C@H](CCCN=C(N)N)NC(=O)[C@H](Cc2ccc(O)cc2)NC(=O)[C@@H](NC(=O)[C@@H](NC(=O)[C@H](CCCN=C(N)N)NC(=O)[C@@H](N)CCCNC(N)=O)c2ccc3ccccc3c2)CSSC[C@@H](C(=O)N[C@@H](CCCN=C(N)N)C(=O)O)NC(=O)[C@H](CCCNC(N)=O)NC(=O)[C@H](CCCN=C(N)N)NC(=O)[C@H](Cc2ccc(O)cc2)NC(=O)[C@@H]2CCCN2C(=O)[C@@H](CCCNC(N)=O)NC1=O | – | > 800 | > 100
NCCCC[C@@H]1NC(=O)[C@H](CCCN=C(N)N)NC(=O)[C@H](Cc2ccc(O)cc2)NC(=O)[C@@H](NC(=O)[C@@H](NC(=O)[C@H](CCCN=C(N)N)NC(=O)[C@@H](N)CCCN=C(N)N)c2ccc3ccccc3c2)CSSC[C@@H](C(=O)N[C@@H](CCCN=C(N)N)C(N)=O)NC(=O)[C@H](CCCNC(N)=O)NC(=O)[C@H](CCCNC(N)=O)NC(=O)[C@H](Cc2ccc(O)cc2)NC(=O)[C@@H]2CCCN2C(=O)[C@@H](CCCNC(N)=O)NC1=O | – | 680 | > 100
NCCCC[C@@H]1NC(=O)[C@H](CCCNC(N)=O)NC(=O)[C@H](Cc2ccc(O)cc2)NC(=O)[C@@H](NC(=O)[C@@H](NC(=O)[C@H](CCCN=C(N)N)NC(=O)[C@@H](N)CCCN=C(N)N)c2ccc3ccccc3c2)CSSC[C@@H](C(=O)N[C@@H](CCCN=C(N)N)C(N)=O)NC(=O)[C@H](CCCNC(N)=O)NC(=O)[C@H](CCCN=C(N)N)NC(=O)[C@H](Cc2ccc(O)cc2)NC(=O)[C@@H]2CCCN2C(=O)[C@@H](CCCCN)NC1=O | – | 410 | > 100
NCCCC[C@@H]1NC(=O)[C@H](CCCNC(N)=O)NC(=O)[C@H](Cc2ccc(O)cc2)NC(=O)[C@@H](NC(=O)[C@@H](NC(=O)[C@H](CCCN=C(N)N)NC(=O)[C@@H](N)CCCN=C(N)N)c2ccc3ccccc3c2)CSSC[C@@H](C(=O)N[C@@H](CCCN=C(N)N)C(=O)O)NC(=O)[C@H](CCCNC(N)=O)NC(=O)[C@H](CCCN=C(N)N)NC(=O)[C@H](Cc2ccc(O)cc2)NC(=O)[C@@H]2CCCN2C(=O)[C@@H](CCCNC(N)=O)NC1=O | – | > 800 | > 100
NCCCC[C@@H]1NC(=O)[C@H](CCCNC(N)=O)NC(=O)[C@H](Cc2ccc(O)cc2)NC(=O)[C@@H](NC(=O)[C@@H](NC(=O)[C@H](CCCN=C(N)N)NC(=O)[C@@H](N)CCCN=C(N)N)c2ccc3ccccc3c2)CSSC[C@@H](C(=O)N[C@@H](CCCN=C(N)N)C(=O)O)NC(=O)[C@H](CCCNC(N)=O)NC(=O)[C@H](CCCNC(N)=O)NC(=O)[C@H](Cc2ccc(O)cc2)NC(=O)[C@@H]2CCCN2C(=O)[C@@H](CCCCN)NC1=O | – | > 800 | > 100
NCCCC[C@@H]1NC(=O)[C@H](CCCN=C(N)N)NC(=O)[C@H](Cc2ccc(O)cc2)NC(=O)[C@@H](NC(=O)[C@@H](NC(=O)[C@H](CCCN=C(N)N)NC(=O)[C@@H](N)CCCN=C(N)N)c2ccc3ccccc3c2)CSSC[C@@H](C(=O)N[C@@H](CCCN=C(N)N)C(N)=O)NC(=O)[C@H](CCCNC(N)=O)NC(=O)[C@H](CCCN=C(N)N)NC(=O)[C@H](Cc2ccc(O)cc2)NC(=O)[C@@H]2CCCN2C(=O)[C@@H](CCCCN)NC1=O | – | – | 10
NCCCC[C@@H]1NC(=O)[C@H](CCCN=C(N)N)NC(=O)[C@H](Cc2ccc(O)cc2)NC(=O)[C@@H](NC(=O)[C@@H](NC(=O)[C@H](CCCN=C(N)N)NC(=O)[C@@H](N)CCCN=C(N)N)c2ccc3ccccc3c2)CSSC[C@@H](C(=O)N[C@@H](CCCN=C(N)N)C(=O)O)NC(=O)[C@H](CCCNC(N)=O)NC(=O)[C@H](CCCNC(N)=O)NC(=O)[C@H](Cc2ccc(O)cc2)NC(=O)[C@@H]2CCCN2C(=O)[C@@H](CCCNC(N)=O)NC1=O | – | > 800 | > 100
NCCCC[C@@H]1NC(=O)[C@H](CCCNC(N)=O)NC(=O)[C@H](Cc2ccc(O)cc2)NC(=O)[C@@H](NC(=O)[C@@H](NC(=O)[C@H](CCCN=C(N)N)NC(=O)[C@@H](N)CCCNC(N)=O)c2ccc3ccccc3c2)CSSC[C@@H](C(=O)N[C@@H](CCCN=C(N)N)C(N)=O)NC(=O)[C@H](CCCNC(N)=O)NC(=O)[C@H](CCCN=C(N)N)NC(=O)[C@H](Cc2ccc(O)cc2)NC(=O)[C@@H]2CCCN2C(=O)[C@@H](CCCCN)NC1=O | – | 350 | > 100
NCCCC[C@@H]1NC(=O)[C@H](CCCNC(N)=O)NC(=O)[C@H](Cc2ccc(O)cc2)NC(=O)[C@@H](NC(=O)[C@@H](NC(=O)[C@H](CCCN=C(N)N)NC(=O)[C@@H](N)CCCN=C(N)N)c2ccc3ccccc3c2)CSSC[C@@H](C(=O)N[C@@H](CCCN=C(N)N)C(=O)O)NC(=O)[C@H](CCCNC(N)=O)NC(=O)[C@H](CCCN=C(N)N)NC(=O)[C@H](Cc2ccc(O)cc2)NC(=O)[C@@H]2CCCN2C(=O)[C@@H](CCCCN)NC1=O | – | 510 | > 80
NCCCC[C@@H]1NC(=O)[C@H](CCCNC(N)=O)NC(=O)[C@H](Cc2ccc(O)cc2)NC(=O)[C@@H](NC(=O)[C@@H](NC(=O)[C@H](CCCN=C(N)N)NC(=O)[C@@H](N)CCCN=C(N)N)c2ccc3ccccc3c2)CSSC[C@@H](C(=O)N[C@@H](CCCN=C(N)N)C(N)=O)NC(=O)[C@H](CCCNC(N)=O)NC(=O)[C@H](CCCN=C(N)N)NC(=O)[C@H](Cc2ccc(O)cc2)NC(=O)[C@@H]2CCCN2C(=O)[C@@H](CCCNC(N)=O)NC1=O | – | > 800 | > 100
NCCCC[C@@H]1NC(=O)[C@H](CCCN=C(N)N)NC(=O)[C@H](Cc2ccc(O)cc2)NC(=O)[C@@H](NC(=O)[C@@H](NC(=O)[C@H](CCCN=C(N)N)NC(=O)[C@@H](N)CCCN=C(N)N)c2ccc3ccccc3c2)CSSC[C@@H](C(=O)N[C@@H](CCCN=C(N)N)C(N)=O)NC(=O)[C@H](CCCNC(N)=O)NC(=O)[C@H](CCCN=C(N)N)NC(=O)[C@H](Cc2ccc(O)cc2)NC(=O)[C@@H]2CCCN2C(=O)[C@@H](CCCNC(N)=O)NC1=O | – | 98 | > 100
NCCCC[C@@H]1NC(=O)[C@H](CCCN=C(N)N)NC(=O)[C@H](Cc2ccc(O)cc2)NC(=O)[C@@H](NC(=O)[C@@H](NC(=O)[C@H](CCCN=C(N)N)NC(=O)[C@@H](N)CCCN=C(N)N)c2ccc3ccccc3c2)CSSC[C@@H](C(=O)N[C@@H](CCCN=C(N)N)C(=O)O)NC(=O)[C@H](CCCNC(N)=O)NC(=O)[C@H](CCCN=C(N)N)NC(=O)[C@H](Cc2ccc(O)cc2)NC(=O)[C@@H]2CCCN2C(=O)[C@@H](CCCNC(N)=O)NC1=O | – | 110 | > 80
NCCCC[C@@H]1NC(=O)[C@H](CCCNC(N)=O)NC(=O)[C@H](Cc2ccc(O)cc2)NC(=O)[C@@H](NC(=O)[C@@H](NC(=O)[C@H](CCCN=C(N)N)NC(=O)[C@@H](N)CCCN=C(N)N)c2ccc3ccccc3c2)CSSC[C@@H](C(=O)N[C@@H](CCCN=C(N)N)C(N)=O)NC(=O)[C@H](CCCNC(N)=O)NC(=O)[C@H](CCCNC(N)=O)NC(=O)[C@H](Cc2ccc(O)cc2)NC(=O)[C@@H]2CCCN2C(=O)[C@@H](CCCCN)NC1=O | – | > 400 | > 100
Nc1ccn([C@H]2CC[C@@H](CO)O2)c(=O)n1 [ZALCITABINE] | 0.16 | – | 14
